The results in this text go back to ChEMBL document CHEMBL5113515, “The Discovery of GSK3640254, a Next-Generation Inhibitor of HIV-1 Maturation” (J Med Chem, 2022).

Series [1] in a line: Cmax in overnight fasted Sprague-Dawley rat at 5 mg/kg, po or 1 mg/kg, iv. Also on record: dose 5 mg/kg, route po. Conditions: in vivo. Type of series: ADME, organism-based.
The test system of series [2] is Human immunodeficiency virus 1. Description: Antiviral activity against HIV1 wild type subtype B NL (4 to 3) harbouring V362/Q369/V370/T371 transfected in human HEK293T cells by dual-luciferase reporter assay. It counts as functional, organism-based. Conditions: Human immunodeficiency virus 1, HEK-293T. In general terms: A reporter such as luciferase makes a cellular process visible.

Series [3] is described as follows: Drug concentration in overnight fasted mouse plasma at 5 mg/kg, po or 1 mg/kg, iv measured after 24 hrs. It counts as ADME, organism-based.
Series [4] is described as follows: Volume of distribution at steady state in overnight fasted cynomolgus monkey at 2 mg/kg, po or 1 mg/kg, iv. It counts as ADME, organism-based, Macaca fascicularis. Conditions: in vivo.
Series [5] in a line: Metabolic stability in rat liver microsomes assessed as half life in presence of NADPH at 0.5 uM by LC-MS/MS analysis. It counts as ADME, Microsome. (In general: Liver microsomes are a subcellular fraction often used to study metabolism.)
The next series concerns the target T1, Cytochrome P450 1A2 (Homo sapiens, UniProt P05177).
T1 sequence (P05177 whole entry): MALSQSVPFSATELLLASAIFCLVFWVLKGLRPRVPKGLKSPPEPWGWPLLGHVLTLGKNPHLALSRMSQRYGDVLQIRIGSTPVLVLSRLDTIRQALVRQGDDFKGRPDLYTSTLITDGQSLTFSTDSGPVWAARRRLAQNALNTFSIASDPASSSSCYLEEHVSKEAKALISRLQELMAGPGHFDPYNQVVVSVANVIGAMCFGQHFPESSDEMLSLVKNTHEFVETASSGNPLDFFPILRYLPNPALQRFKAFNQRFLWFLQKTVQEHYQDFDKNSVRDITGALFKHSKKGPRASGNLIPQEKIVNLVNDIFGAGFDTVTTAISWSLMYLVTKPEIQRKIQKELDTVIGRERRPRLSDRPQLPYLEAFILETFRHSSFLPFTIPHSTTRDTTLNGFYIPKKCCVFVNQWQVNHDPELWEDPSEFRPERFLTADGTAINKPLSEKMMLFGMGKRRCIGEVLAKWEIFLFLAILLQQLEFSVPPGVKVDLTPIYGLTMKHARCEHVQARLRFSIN
Nature of the series: Inhibition of CYP1A2 (unknown origin). Type of series: ADME.

Series [6] in a line: Half life in overnight fasted mouse at 1 mg/kg, iv. Conditions: in vivo. It counts as ADME, organism-based.
Series [7] in a line: AUC(0 to t) in overnight fasted Sprague-Dawley rat at 5 mg/kg, po or 1 mg/kg, iv. Type of series: ADME, organism-based. Also on record: dose 5 mg/kg, route po. Particulars: in vivo.
Series [8] can be described thus: Volume of distribution at steady state in overnight fasted Beagle dog at 2 mg/kg, po or 1 mg/kg, iv. It counts as ADME, organism-based, Canis lupus familiaris. Particulars: in vivo.
For the next series, the target named is T2, CYP1A2 (Homo sapiens, UniProt P05177).
T2 sequence (P05177 whole entry): T1 sequence (P05177 whole entry)
Nature of the series: Induction of CYP1A2 in human hepatocyte. Type of series: ADME, cell-based. Conditions: hepatocytes.

The target in another series is Cytochrome P450 3A4 (Homo sapiens, UniProt P08684). Description: Inhibition of CYP3A4 (unknown origin). Type of series: ADME.
Series [9] can be described thus: Oral bioavailability in overnight fasted mouse using spray-dried dispersion at 5 mg/kg. Conditions: in vivo. Type of series: ADME, organism-based.
The target of series [10] is T3, UDP-glucuronosyltransferase 1A1 (Homo sapiens, UniProt P22309).
T3 sequence (P22309 whole entry): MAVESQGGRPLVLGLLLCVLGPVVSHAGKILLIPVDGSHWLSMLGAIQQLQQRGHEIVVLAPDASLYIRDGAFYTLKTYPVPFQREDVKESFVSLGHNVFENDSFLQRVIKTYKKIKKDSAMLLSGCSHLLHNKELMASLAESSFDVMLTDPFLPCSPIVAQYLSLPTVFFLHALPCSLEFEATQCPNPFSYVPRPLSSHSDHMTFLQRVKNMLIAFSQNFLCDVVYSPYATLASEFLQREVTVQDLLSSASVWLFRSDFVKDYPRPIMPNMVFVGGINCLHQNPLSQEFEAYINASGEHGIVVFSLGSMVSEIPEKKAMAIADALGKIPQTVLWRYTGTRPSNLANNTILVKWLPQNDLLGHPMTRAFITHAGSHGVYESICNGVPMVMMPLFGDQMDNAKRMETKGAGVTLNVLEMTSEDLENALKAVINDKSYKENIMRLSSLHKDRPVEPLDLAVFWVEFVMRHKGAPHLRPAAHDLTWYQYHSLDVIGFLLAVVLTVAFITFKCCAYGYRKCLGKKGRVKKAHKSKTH
Nature of the series: Inhibition of UGT1A1(unknown origin).

The target of a further series is Cytochrome P450 2C9 (Homo sapiens, UniProt P11712). Nature of the series: Inhibition of CYP2C9 (unknown origin). It counts as ADME.
Series [11] can be described thus: Metabolic stability in human liver microsomes assessed as half life in presence of NADPH at 0.5 uM by LC-MS/MS analysis. Type of series: ADME, Microsome.
The target in another series is T4, CYP2B6 (Homo sapiens, UniProt P20813).
T4 sequence (P20813 whole entry): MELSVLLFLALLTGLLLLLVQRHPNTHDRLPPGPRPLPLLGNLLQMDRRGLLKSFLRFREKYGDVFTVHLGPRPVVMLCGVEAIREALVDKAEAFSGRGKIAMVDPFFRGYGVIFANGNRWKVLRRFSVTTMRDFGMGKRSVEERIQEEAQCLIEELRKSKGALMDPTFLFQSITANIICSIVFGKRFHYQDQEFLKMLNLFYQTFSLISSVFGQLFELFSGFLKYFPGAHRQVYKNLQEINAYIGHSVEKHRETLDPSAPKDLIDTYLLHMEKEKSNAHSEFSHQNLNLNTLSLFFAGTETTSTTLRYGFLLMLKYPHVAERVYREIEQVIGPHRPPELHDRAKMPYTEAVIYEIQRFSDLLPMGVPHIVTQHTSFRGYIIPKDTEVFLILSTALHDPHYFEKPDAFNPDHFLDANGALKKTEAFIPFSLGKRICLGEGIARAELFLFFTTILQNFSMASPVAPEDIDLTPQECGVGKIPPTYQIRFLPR
Nature of the series: Induction of CYP2B6 in human hepatocyte. It counts as ADME, cell-based. Conditions: hepatocytes.

Series [12] is described as follows: Metabolic stability in cynomolgus monkey liver microsomes assessed as half life in presence of NADPH at 0.5 uM by LC-MS/MS analysis. It counts as ADME, Macaca fascicularis, Microsome.
Series [13] can be described thus: AUC(0 to t) in overnight fasted cynomolgus monkey at 2 mg/kg, po or 1 mg/kg, iv. Type of series: ADME, organism-based, Macaca fascicularis. Also noted: dose 2 mg/kg, route po. Conditions: in vivo.
Series [14] can be described thus: Volume of distribution at steady state in overnight fasted mouse at 5 mg/kg, po or 1 mg/kg, iv. Type of series: ADME, organism-based. Conditions: in vivo.

Chain of Cytochrome P450 3A4 (P08684 whole entry): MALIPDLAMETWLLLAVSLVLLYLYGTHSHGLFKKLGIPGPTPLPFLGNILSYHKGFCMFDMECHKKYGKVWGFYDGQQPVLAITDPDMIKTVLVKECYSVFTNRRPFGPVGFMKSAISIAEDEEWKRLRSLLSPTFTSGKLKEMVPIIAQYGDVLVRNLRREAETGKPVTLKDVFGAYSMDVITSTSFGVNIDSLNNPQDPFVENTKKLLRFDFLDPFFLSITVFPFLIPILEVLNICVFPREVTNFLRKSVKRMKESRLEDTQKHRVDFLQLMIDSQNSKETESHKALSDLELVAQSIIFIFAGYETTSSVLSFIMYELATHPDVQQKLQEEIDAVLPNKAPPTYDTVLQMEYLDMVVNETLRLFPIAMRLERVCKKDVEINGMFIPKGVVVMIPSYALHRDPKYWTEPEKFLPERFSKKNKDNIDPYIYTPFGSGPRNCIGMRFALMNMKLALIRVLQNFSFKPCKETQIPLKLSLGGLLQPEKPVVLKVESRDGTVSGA
Chain of Cytochrome P450 2C9 (P11712 whole entry): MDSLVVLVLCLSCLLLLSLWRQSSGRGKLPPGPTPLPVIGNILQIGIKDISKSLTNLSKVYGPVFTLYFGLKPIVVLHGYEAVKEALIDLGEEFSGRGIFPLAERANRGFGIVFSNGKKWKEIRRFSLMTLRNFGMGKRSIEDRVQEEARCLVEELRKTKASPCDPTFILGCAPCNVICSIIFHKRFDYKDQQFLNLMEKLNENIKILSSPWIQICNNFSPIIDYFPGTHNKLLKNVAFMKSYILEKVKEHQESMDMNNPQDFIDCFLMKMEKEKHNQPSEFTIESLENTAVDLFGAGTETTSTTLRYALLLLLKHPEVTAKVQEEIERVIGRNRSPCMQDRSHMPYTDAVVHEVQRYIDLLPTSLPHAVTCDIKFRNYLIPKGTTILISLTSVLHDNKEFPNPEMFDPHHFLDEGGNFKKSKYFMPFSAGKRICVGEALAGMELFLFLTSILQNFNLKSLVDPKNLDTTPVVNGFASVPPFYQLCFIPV

Regarding `C=C(C)[C@@H]1CC[C@]2(NCCN3CCS(=O)(=O)CC3)CC[C@]3(C)[C@H](CC[C@@H]4[C@@]5(C)CC=C(C6=CC[C@@](CF)(C(=O)O)CC6)C(C)(C)[C@@H]5CC[C@]43C)[C@@H]12` [FIPRAVIRIMAT], the Cmax in [1] was 900 nM. The EC50 in series [2] was 0.0011 µM; at CYP1A2 it was more than 5 µM; on CYP2B6, more than 5 µM. Besides, the concentration at 24 h in series [3] is 179 nM. Moreover, the Vdss in series [4] is 0.43 L/kg; in [8] it was 0.49 L/kg; in series [14], 1 L/kg. Moreover, the half-life at 0.5 µM in series [5] is 1.5 h; in series [11], more than 2 h; in [12], 0.467 h. Also, the IC50 is more than 13.3 µM against Cytochrome P450 1A2, more than 13.3 µM against Cytochrome P450 3A4, 3.9 µM in series [10] and more than 13.3 µM on Cytochrome P450 2C9. In addition, the half-life in series [6] was 4.6 h. In addition, the AUC(0-t) came out at 7.4 µM·h in series [7] and 7.6 µM·h in series [13]. The same compound had a bioavailability in [9] of 91%.

The Cmax is the peak of the concentration-time curve. A word on the EC50: it is the concentration giving half of the maximal effect. In general, half-life refers to the time in which the quantity being followed falls by half. One may read the IC50 as the point on the concentration scale where inhibition reaches its midpoint. As a reminder, the AUC(0-t) is the area under the concentration-time curve up to a stated or last time point. As usually defined, the bioavailability is the share of a dose that reaches the circulation, judged against a reference dose that is usually intravenous.
